# Measured values published in patent publication US11261189B2, “Substituted 2,4 diamino-quinoline as new medicament for fibrosis, autophagy and cathepsins B (CTSB), L (CTSL) and D (CTSD) related diseases” (Genoscience Pharma, priority 2018, dated 2022).
# Entries after “also recorded” stand apart in the source; their conditions may differ. Structures can show the parent of a compound that is named as a salt.
# System: autophagy flux (LC3-II) in Huh7 cell line
# Test: Autophagy flux, LC3-II immunoblot with/without Bafilomycin, Huh7 cell line
# Type: cell-based
# Conditions: 4 hours and 24 hours of treatment
# Experimental: Since compound 2-3 induced an inhibition of the proteolytic activity of cathepsins B, D and/or L (see example 1) supporting an inhibition of some lysosomal functions which can affect the cellular autophagy flux, the capacity of compound 2-3 to modulate the cellular autophagy processes and functions was evaluated in two Hepatocellular carcinoma (HCC) cell lines: Huh7 and HepG2. For this purpose, the accumulation of LC3-II (Light Chain 3 phosphatidylethanolamine conjugate) in presence or absence of compound 2-3 was analyzed using immunoblot analysis of LC3-II.
# The HepG2 cell line was maintained in DMEM low glucose (Cat #21885025, ThermoFischer) containing 1% penicillin-streptomycin (Cat #P06-07100, Dutscher) and 10% FBS (Cat #SV30160.03C, Dutscher). The Huh7 cell line was maintained in DMEM high glucose (Cat #L0103-500, Dutscher) containing 1% penicillin-streptomycin (Cat #P06-07100, Dutscher) and 10% SVF (Cat #SV30160.03C, Dutscher). Cells lines were cultured at 37° C. with 5% CO2.
# The day before the experiment, 6-well plates with 250,000 cells for HepG2 and 310,000 cells for Huh7 in 1.8 mL of medium per well were prepared. […]
# After 4 hours and 24 hours of cells treatment, the medium was removed from each well. […] Total protein concentration was assessed using the BCA reagent (Cat #23227, ThermoFischer) and cellular lysates were stored at −80° C. until western-blot analysis. […]
smiles,measurement,setting,value
"CC(C)(C)NC1CCN(c2cc(NCc3ccc(Cl)cc3)nc3ccccc23)CC1 [2-3, 2-(4-chlorobenzylamino)-4-(4-tert-butylaminopiperidin-1-yl)-quinoline Hydrochloride Salt]",accumulation of the LC3-II form,,"significantly induced, in a dose-dependent manner, an accumulation of the LC3-II form"
same,autophagy flux (LC3-II Baf+/Baf− ratio),Hydrochloride Salt,inhibition; also recorded: inhibitor of the autophagy flux
